This is an account of results in patent US8470819B2, “Benzimidazole and aza-benzimidazole carboxamides” (Merck Sharp & Dohme Corp., priority 2008, dated 2013).

In the assay the target is T1, full-length human PAFR (Homo sapiens, UniProt P25105).
T1 construct: PAFR was derived from membranes from CHO cells over-expressing the full-length human PAFR; expressed in transfected cells; host or cells: CHO cells (membranes)
Kind of assay: PAF Binding Assay. The settings on record: for IC50: 3H-PAF competition, membranes from CHO cells over-expressing human PAFR, SPA beads. How it is done:
PAFR was derived from membranes from CHO cells over-expressing the full-length human PAFR. Supernatant from the cell homogenate pellet (3000×g) is pelleted (35000×g), and the resulting pellet is resuspended in a Tris HCl buffer (50 mM Iris HCl pH 7.4, 5 mM MgCl2, 30% glycerol) to afford a parent PAFR stock that is diluted in PAF binding buffer (50 mM HEPES pH 7.0, 10 mM MgCl2, 5 mM CaCl2, 5 mM D-(+)glucose, 0.25% fatty-acid free BSA) to afford a PAFR assay stock (120 μg/mL) prior to each use.
Binding buffer (48 μL) and competitor compound (i.e., the compound to be tested) in DMSO (2 μL) were added to a 96-well plate. Cold PAF C-18 (200 nM final concentration) was used to determine non-specific binding. 25000 cpm of ^3H-PAF (25 μL of a stock solution in PAF binding buffer) was added to all wells, and the plates sealed and shaken at rt for 5 min. PAFR assay stock (3 μg/well) was added, and the plate was sealed and shaken at rt for 2 h. SPA beads^1 (10 μL of a 25 mg/mL suspension in binding buffer) were added to all wells, and the plates were sealed and shaken for 30 min. The plates were centrifuged (1900 rpm for 5 min.), allowed to stand for 30 min. and read on a Microbeta TriLux counter.
Specific binding is defined as total binding minus non-specific binding. Total binding was the amount of ^3H-PAF bound to SPA beads in the absence of competitor; non-specific binding was ^3H-PAF bound in the presence of 30 μM Compound A.^2 The IC50 values were obtained by computer analysis of the experimental data.^3 Percent inhibition was calculated as 100−[(Sample-Non-specific bound)/(Total bound Non-specific bound)×100]

T1 sequence (P25105 whole entry): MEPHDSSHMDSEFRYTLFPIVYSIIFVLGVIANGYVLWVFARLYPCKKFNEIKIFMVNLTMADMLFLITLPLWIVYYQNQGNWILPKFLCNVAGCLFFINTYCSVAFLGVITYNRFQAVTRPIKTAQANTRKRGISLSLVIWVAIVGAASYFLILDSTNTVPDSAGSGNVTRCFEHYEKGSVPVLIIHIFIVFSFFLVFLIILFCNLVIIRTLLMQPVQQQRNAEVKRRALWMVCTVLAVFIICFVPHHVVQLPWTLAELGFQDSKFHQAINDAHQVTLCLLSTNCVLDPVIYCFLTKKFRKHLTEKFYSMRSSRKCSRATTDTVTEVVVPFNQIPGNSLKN

In the case of `CC(C)n1c(-c2ccc(OC(F)(F)F)cc2)nc2cc(C(=O)N3CCC(c4cccnc4)C3)ccc21` (single isomer, unassigned) [Example 1Ar, 1-isopropyl-5-[(3-pyridin-3-ylpyrrolidin-1-yl)carbonyl]-2-[4-(trifluoromethoxy)phenyl]-1H-benzimidazole], the concentration for half-maximal inhibition (IC50) is 2 nM. In addition, the “IC50 results in the PAF Binding Assay, slower vs faster eluting enantiomer” value (comparison of the resolved enantiomers, in words) is “faster eluting enantiomer was preferred”. With `CC(C)c1nc2cc(C(=O)N3CCC(c4cccnc4)C3)ccc2n1-c1ccc(OC(F)(F)F)cc1` (single isomer, unassigned) [Example 1c, 2-isopropyl-5-[(3-pyridin-3-ylpyrrolidin-1-yl)carbonyl]-1-[4-(trifluoromethoxy)phenyl]-1H-benzimidazole], the IC50 was found to be 11 nM.

`O=C(c1ccc2c(c1)nc(-c1ccc(OC(F)(F)F)cc1)n2C1CCC1)N1CCC(c2cccnc2)C1` (stereo not drawn) [Example 1Fr, 1-cyclobutyl-5-[(3-pyridin-3-ylpyrrolidin-1-yl)carbonyl]-2-[4-(trifluoromethoxy)phenyl]-1H-benzimidazole] yielded an IC50 of 9 nM. Still for that read-out and setting: the same measure for `CC1(n2c(-c3ccc(OC(F)(F)F)cc3)nc3cc(C(=O)N4CCC(c5cccnc5)C4)ccc32)CC1` (stereo not drawn) [Example 1Gr, 1-(1-methylcyclopropyl)-5-[(3-pyridin-3-ylpyrrolidin-1-yl)carbonyl]-2-[4-(trifluoromethoxy)phenyl]-1H-benzimidazole]: 10 nM; for `CC(C)n1c(-c2ccc(OC(F)(F)F)cc2)nc2cc(C(=O)N3CCC(O)(c4cccnc4)C3)ccc21` (stereo not drawn) [Example 1Qa, 1-({1-isopropyl-2-[4-(trifluoromethoxy)phenyl]-1H-benzimidazol-5-yl}carbonyl)-3-pyridin-3-ylpyrrolidin-3-ol]: 9 nM.
